From EP4722228A1, “NEW COMPOUND TARGETING MUSK AND USE THEREOF” (The University of Tokyo, priority 2023, dated 2024)
Bridge positions count the residues as written; N and C are the ends. Square brackets hold non-standard residues; d marks the D form. Peptide text beside a SMILES is read from it. I, II: the chains in the order shown. * marks the point of attachment. Palmitoyl = CCCCCCCCCCCCCCCC(=O)*; PEG3 = NCCOCCOCCOCCC(=O)O; Dap = NC[C@H](N)C(=O)O

Target: T1, human MuSK (Homo sapiens, UniProt O15146)
T1 construct: DNA corresponding to the extracellular portion (amino acids 1-493) was amplified by a PCR method; made in house; host or cells: Expi293F cells
T1 sequence (O15146 24-493): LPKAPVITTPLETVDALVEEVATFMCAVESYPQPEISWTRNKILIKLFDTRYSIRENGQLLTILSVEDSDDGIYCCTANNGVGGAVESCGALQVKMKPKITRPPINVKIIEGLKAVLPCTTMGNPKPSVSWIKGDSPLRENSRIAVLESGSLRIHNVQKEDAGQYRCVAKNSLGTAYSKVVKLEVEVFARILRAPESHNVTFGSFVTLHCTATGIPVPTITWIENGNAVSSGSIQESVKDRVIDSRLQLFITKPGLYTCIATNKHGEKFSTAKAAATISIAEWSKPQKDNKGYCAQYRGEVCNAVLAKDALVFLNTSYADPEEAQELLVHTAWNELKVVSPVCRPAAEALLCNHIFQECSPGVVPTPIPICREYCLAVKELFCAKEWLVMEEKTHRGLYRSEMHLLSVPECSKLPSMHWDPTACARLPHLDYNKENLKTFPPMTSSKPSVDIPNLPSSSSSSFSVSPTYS
Experiment: SPR binding activity test to human MuSK (Biacore)
Details: Table 5, read-out: Binding activity (KD) (nM) Human
Summary of the method: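 Extracellular domain (aa 1-493) of human MuSK, expressed as an Fc fusion in Expi293F cells, was captured on Protein G or A chips. Analytes were injected as concentration series in phosphate-buffered saline with 0.05% Tween 20, plus 0.1% DMSO for peptides. ka, kd and KD were obtained from 1:1 binding fits.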

Kd: 0.9 nM
SMILES: CCCCCCCCCCCCCCCC(=O)NCCCC[C@H](NC(=O)[C@H](CNC(=O)CCOCCOCCOCCNC(=O)CNC(=O)[C@@H]1CSCC(=O)N[C@H](Cc2ccc(O)cc2)C(=O)N2CCC[C@H]2C(=O)N[C@@H](CO)C(=O)N[C@@H](Cc2ccc(O)cc2)C(=O)N[C@@H](Cc2c[nH]cn2)C(=O)N[C@@H]([C@@H](C)O)C(=O)N[C@@H](CC(N)=O)C(=O)N[C@@H](C(C)C)C(=O)N[C@@H](C(C)C)C(=O)N[C@@H](C)C(=O)N[C@@H](CO)C(=O)N[C@@H](CC(C)C)C(=O)N[C@@H](CCCCN)C(=O)N[C@@H](CCCNC(=N)N)C(=O)N1)NC(=O)CCOCCOCCOCCNC(=O)CNC(=O)[C@@H]1CSCC(=O)N[C@H](Cc2ccc(O)cc2)C(=O)N2CCC[C@H]2C(=O)N[C@@H](CO)C(=O)N[C@@H](Cc2ccc(O)cc2)C(=O)N[C@@H](Cc2c[nH]cn2)C(=O)N[C@@H]([C@@H](C)O)C(=O)N[C@@H](CC(N)=O)C(=O)N[C@@H](C(C)C)C(=O)N[C@@H](C(C)C)C(=O)N[C@@H](C)C(=O)N[C@@H](CO)C(=O)N[C@@H](CC(C)C)C(=O)N[C@@H](CCCCN)C(=O)N[C@@H](CCCNC(=N)N)C(=O)N1)C(N)=O [MuSK7-pal] (I: {CH2CO}-[dY]PSYHTNVVASLKRCG[PEG3][Dap]K(Palmitoyl)-NH2 / II: {CH2CO}-[dY]PSYHTNVVASLKRCG[PEG3]; amide I:18-II:C; thioether I:N-I:15, II:N-II:15)
